{
  "source": "patent US11109615B2",
  "about": "“Vitamin A composition” (NESTEC S.A., priority 2015, dated 2021)",
  "origin": "cited, not measured here",
  "settings": "ambient conditions",
  "data": [
    {"smiles": "CC1=C(/C=C/C(C)=C/C=C/C(C)=C/C=C/C=C(C)/C=C/C=C(C)/C=C/C2=C(C)CCCC2(C)C)C(C)(C)CCC1", "note": "[β-carotene, All-trans-β-carotene]", "values": [
      {"measurement": "maximum solubility", "value": 0.08, "unit": "g/100 g oil"}
    ]}
  ]
}
